Experimental data: patent publication US6849709B2, “Aerothricin derivatives” (Basilea Pharmaceutica AG, priority 2000, dated 2005)
*1 amine or outer side, *2 acyl side, *3 side chain or, on linkers, in order; H or OH if unused. Where a SMILES comes first, the peptide text is derived from it. Bridges are numbered along the chain shown (N, C = ends). Side-chain parts run from the residue outwards. [ ]: non-standard residue; d: D form. The star is where a group is joined. ξ: configuration not given here. pTerphenylCO(4''-OnC5H11) = CCCCCOc1ccc(-c2ccc(-c3ccc(C(=O)*)cc3)cc2)cc1; Orn(4R-OH,5R-OH) = O=C([C@H](C[C@@H](O)[C@@H](O)N[*:3])N[*:1])[*:2]; hTyr(3S-OH,4S-OH) = N[C@H](C(=O)O)[C@H](O)[C@@H](O)c1ccc(O)cc1; Orn(Nα,Nα-(2-aminoethyl)2) = NCCC[C@@H](C(=O)*)N(CCN)CCN; X2 = NCCC[C@H](N)C(=O)N(CCCN)CCC[C@H](N[*:1])C(=O)[*:2]; NαBis(2-aminoethyl)dOrn = NCCC[C@H](C(=O)*)N(CCN)CCN; Pro(3S-OH,4S-Me) = C[C@H]1CN[C@H](C(=O)O)[C@H]1O; X7 = CCCCCCCCCCCCC(C)[C@H](CC(=O)[*:1])O[*:2]; X4 = NCCCN(CCC[C@H](N[*:1])C(=O)[*:2])[*:3]; X3 = CCCCCCCCCCCCC[C@H](CC(=O)[*:1])O[*:2]; X6 = NCCN(CCC[C@H](N[*:1])C(=O)[*:2])[*:3]; ξGln(3R-OH) = NC(=O)C[C@@H](O)C(N)C(=O)O; Dopa = N[C@@H](Cc1ccc(O)c(O)c1)C(=O)O; Pro(3S-OH) = O=C(O)[C@H]1NCC[C@@H]1O; X1 = NC(=O)CC(O)C(N[*:1])C(=O)[*:2]; d(aThr) = C[C@@H](O)[C@@H](N)C(=O)O; Hyp = O=C(O)[C@@H]1C[C@@H](O)CN1; X5 = NCCCN[C@@H](CCCN)C(=O)*; dOrn = NCCC[C@@H](N)C(=O)O; Orn = NCCC[C@H](N)C(=O)O

Columns and labels:
Solubility = conditions: solvents in which soluble
Candida albicans CY1002 = assay: In vitro antifungal activity, broth micro-dilution IC80; type: cell-based; conditions: YNB medium, 1-2 days at 35° C.
Protocol: (§1) The in vitro antifungal activities of the representative Aerothricins of the present study were evaluated by determining the 80% inhibitory concentration (IC80), which was calculated as the lowest concentration of an antifungal to inhibit the growth of fungus to 20% turbidity compared with the drug-free control growth spectrophotometrically.
(§2) The IC80 values were determined by the broth micro-dilution procedure based on NCCLS Approved Standard with the following minor modifications (National Committee for Clinical Laboratory Standards. (1997) Reference method for broth dilution antifungal susceptibility testing for yeasts. Approved standard. Document M27-A). Yeast Nitrogen Base (YNB; Difco Lab.) supplemented with 1% glucose and 0.25% K2HPO4 was used as testing medium for yeasts, the same medium solidified with 0.2% low melting point agarose (BRL) was used for filamentous fungi. Inoculum size was 1-3×10^3 cells/ml, and incubation was performed for 1-2 days at 35° C.

[1] = tested on: Scedosporium apiospermum CF1077; assay: as above; type: cell-based; conditions: YNB medium with 0.2% agarose, 1-2 days at 35° C.
Protocol: as §1, §2

[2] = tested on: Aspegillus fumigatus CF1003; assay: as above; type: cell-based, Aspergillus fumigatus; conditions: YNB medium with 0.2% agarose, 1-2 days at 35° C.
Protocol: as §1, §2

Candida albicans = assay: Murine systemic candidiasis, survival; type: in vivo, mouse; conditions: Crj: CD-1 (ICR) mice; i.v. once just after infection; survival on day 7
Protocol: Mice of a conventional immunocompetent mouse strain, Crj: CD- 1 (ICR) were used for experimental infection models of systemic candidiasis. 4 weeks old Crj: CD-1 (ICR) mice were used for systemic candidiasis by injecting Candida albicans 5×10^6 conidia/mouse via the tail vein. Test compounds were intravenously (i.v.) given once just after infection for systemic candidiasis. 50% of effective dose (ED50) values were calculated from the survival number at each dose on day 7.

A. fumigatus = assay: Murine pulmonary aspergillosis, survival; type: in vivo, mouse; conditions: cortisone-treated ICR male mice; once daily for 4 days; survival on day 14
Protocol: Murine pulmonary aspergillosis was created in cortisone-treated (250 mg/kg, twice sub-cutaneous treatments on 3 days before and on the infection day) ICR male mouse. Conidia of A. fumigatus (2.5×10^5 conidia/mouse) were infected intratracheally to these mice, and treatments were carried out once daily for 4 days. The efficacy of each drug was determined from the survival number, and 50% of effective dose (ED50) was calculated from the survival number at each dose on the 14 days.

mouse hepatocytes = assay: In vitro hepatotoxicity test; type: cell-based; conditions: mouse hepatocyte monolayers, exposed 1 day, morphological evaluation
From the text: The mouse hepatocytes were isolated by a collagenase digestion and cultured in microtest plates. The hepatocyte monolayers were exposed to the test Aerothricins in the culture system for 1 day. After the culture period, the hepatocytes were observed under a microscope and evaluated morphologically. The degree of the morphological alteration (degeneration) of the hepatocytes by the test Aerothricins were compared with WF11243 and LY303366.

[3] = Toxicity on repeated i.v. administration to mice; type: in vivo; conditions: 5 mg/kg and 30 mg/kg once daily i.v. for 2 weeks

| SMILES | In vitro Antifungal activity, IC80 (Candida albicans CY1002) [µg/mL] | In vitro Antifungal activity, IC80 [1] [µg/mL] | In vitro Antifungal activity, IC80 [2] [µg/mL] | In vivo antifungal activity against systemic candidiasis in mice, ED50 on day 7 (Candida albicans) [mg/kg] | In vivo antifungal activity against pulmonary aspergillosis in mice, ED50 on day 14 (A. fumigatus) [mg/kg] | Cytotoxicity to hepatocyte (mouse hepatocytes) [µg/mL] | further results |
| --- | --- | --- | --- | --- | --- | --- | --- |
| CCCCCCCCCCCCC[C@@H]1CC(=O)N[C@H]([C@@H](C)O)C(=O)N[C@H](C)C(=O)N[C@@H](Cc2ccc(O)c(O)c2)C(=O)N[C@@H](C(C)C)C(=O)N2C[C@H](O)C[C@H]2C(=O)N[C@H]([C@@H](C)O)C(=O)N[C@@H]([C@@H](C)O)C(=O)N2CC[C@H](O)[C@H]2C(=O)NC(C(O)CC(N)=O)C(=O)NCC(=O)N[C@H]([C@@H](C)O)C(=O)N[C@@H](CCCN)C(=O)O1 (stereo partly drawn) [Aerothricin 2] ([d(aThr)][dA][Dopa]V[Hyp][d(aThr)]T[Pro(3S-OH)][X1]G[d(aThr)][Orn]; linker N-C via X3) |  |  |  |  |  |  | Solubility (Solubility): Soluble: water, methanol, dimethylsulfoxide |
| CCCCCCCCCCCCC[C@@H]1CC(=O)N[C@H]([C@@H](C)O)C(=O)N[C@H](C)C(=O)N[C@@H](Cc2ccc(O)cc2)C(=O)N[C@@H](C(C)C)C(=O)N2C[C@H](O)C[C@H]2C(=O)N[C@H]([C@@H](C)O)C(=O)N[C@@H]([C@@H](C)O)C(=O)N2CC[C@H](O)[C@H]2C(=O)NC(C(O)CC(N)=O)C(=O)NCC(=O)N[C@H]([C@@H](C)O)C(=O)N[C@@H](CCCN(CCCN)C(=O)[C@H](CCCN)NCCCN)C(=O)O1 (stereo partly drawn) [Aerothricin 136] ([d(aThr)][dA]YV[Hyp][d(aThr)]T[Pro(3S-OH)][X1]G[d(aThr)][X4](X5); linker N-C via X3) | 0.33 | 0.34 | 0.38 |  |  |  |  |
| CCCCCCCCCCCCC[C@@H]1CC(=O)N[C@H]([C@@H](C)O)C(=O)N[C@H](C)C(=O)N[C@@H](Cc2ccc(O)cc2)C(=O)N[C@@H](C(C)C)C(=O)N2C[C@H](O)C[C@H]2C(=O)N[C@H]([C@@H](C)O)C(=O)N[C@@H]([C@@H](C)O)C(=O)N2CC[C@H](O)[C@H]2C(=O)NC(C(O)CC(N)=O)C(=O)NCC(=O)N[C@H]([C@@H](C)O)C(=O)N[C@@H](CCCN(CCCN)C(=O)[C@@H](N)CCCN)C(=O)O1 (stereo partly drawn) [Aerothricin 132] ([d(aThr)][dA]YV[Hyp][d(aThr)]T[Pro(3S-OH)][X1]G[d(aThr)][X2]; linker N-C via X3) | 0.28 | 0.38 | 2.9 | 0.43 | 5.2 | >100 | acute toxicity [3]: no acute toxicity |
| CCCCCCCCCCCCC(C)[C@@H]1CC(=O)N[C@H]([C@@H](C)O)C(=O)N[C@H](C)C(=O)N[C@@H](Cc2ccc(O)cc2)C(=O)N[C@@H](C(C)C)C(=O)N2C[C@H](O)C[C@H]2C(=O)N[C@H]([C@@H](C)O)C(=O)N[C@@H]([C@@H](C)O)C(=O)N2CC[C@H](O)[C@H]2C(=O)NC(C(O)CC(N)=O)C(=O)NCC(=O)N[C@H]([C@@H](C)O)C(=O)N[C@@H](CCCN)C(=O)O1 (stereo partly drawn) [Aerothricin 1] ([d(aThr)][dA]YV[Hyp][d(aThr)]T[Pro(3S-OH)][X1]G[d(aThr)][Orn]; linker N-C via X7) |  |  |  |  |  |  | Solubility (Solubility): Soluble: water, methanol, dimethylsulfoxide |
| CCCCCCCCCCCCC[C@@H]1CC(=O)N[C@H]([C@@H](C)O)C(=O)N[C@H](C)C(=O)N[C@@H](Cc2ccc(O)cc2)C(=O)N[C@@H](C(C)C)C(=O)N2C[C@H](O)C[C@H]2C(=O)N[C@H]([C@@H](C)O)C(=O)N[C@@H]([C@@H](C)O)C(=O)N2CC[C@H](O)[C@H]2C(=O)NC([C@H](O)CC(N)=O)C(=O)NCC(=O)N[C@H]([C@@H](C)O)C(=O)N[C@@H](CCCNC(=O)[C@@H](CCCN)NC(=O)[C@@H](N)CCCN)C(=O)O1 (stereo partly drawn) [Aerothricin 133] ([d(aThr)][dA]YV[Hyp][d(aThr)]T[Pro(3S-OH)][ξGln(3R-OH)]G[d(aThr)][Orn]([dOrn-Orn]); linker N-C via X3) |  |  |  | 0.35 |  |  |  |
| CCCCCOc1ccc(-c2ccc(-c3ccc(C(=O)N[C@H]4C[C@@H](O)[C@@H](O)NC(=O)[C@@H]5[C@@H](O)[C@@H](C)CN5C(=O)[C@H]([C@@H](C)O)NC(=O)[C@H]([C@H](O)[C@@H](O)c5ccc(O)cc5)NC(=O)[C@@H]5C[C@@H](O)CN5C(=O)[C@H]([C@@H](C)O)NC4=O)cc3)cc2)cc1 [LY303366, reference compound] ({pTerphenylCO(4''-OnC5H11)}-[Orn(4R-OH,5R-OH)]T[Hyp][hTyr(3S-OH,4S-OH)]T[Pro(3S-OH,4S-Me)]; lactam 1-C) |  |  |  |  |  | 10 |  |
| CCCCCCCCCCCCC[C@@H]1CC(=O)N[C@H]([C@@H](C)O)C(=O)N[C@H](C)C(=O)N[C@@H](Cc2ccc(O)cc2)C(=O)N[C@@H](C(C)C)C(=O)N2C[C@H](O)C[C@H]2C(=O)N[C@H]([C@@H](C)O)C(=O)N[C@@H]([C@@H](C)O)C(=O)N2CC[C@H](O)[C@H]2C(=O)NC(C(O)CC(N)=O)C(=O)NCC(=O)N[C@H]([C@@H](C)O)C(=O)N[C@@H](CCCN(CCCN)C(=O)[C@H](CCCN)N(CCN)CCN)C(=O)O1 (stereo partly drawn) [Aerothricin 134] ([d(aThr)][dA]YV[Hyp][d(aThr)]T[Pro(3S-OH)][X1]G[d(aThr)][X4](Orn(Nα,Nα-(2-aminoethyl)2)); linker N-C via X3) | 0.37 | 0.37 | 0.58 |  | 5.8 | >100 |  |
| CCCCCCCCCCCCC[C@@H]1CC(=O)N[C@H]([C@@H](C)O)C(=O)N[C@H](C)C(=O)N[C@@H](Cc2ccc(O)cc2)C(=O)N[C@@H](C(C)C)C(=O)N2C[C@H](O)C[C@H]2C(=O)N[C@H]([C@@H](C)O)C(=O)N[C@@H]([C@@H](C)O)C(=O)N2CC[C@H](O)[C@H]2C(=O)NC(C(O)CC(N)=O)C(=O)NCC(=O)N[C@H]([C@@H](C)O)C(=O)N[C@@H](CCCN(CCCN)C(=O)[C@@H](CCCN)N(CCN)CCN)C(=O)O1 (stereo partly drawn) [Aerothricin 135] ([d(aThr)][dA]YV[Hyp][d(aThr)]T[Pro(3S-OH)][X1]G[d(aThr)][X4](NαBis(2-aminoethyl)dOrn); linker N-C via X3) | 0.41 | 0.35 | 0.37 | 0.35 |  | >100 |  |
| CCCCCCCCCCCCC[C@@H]1CC(=O)N[C@H]([C@@H](C)O)C(=O)N[C@H](C)C(=O)N[C@@H](Cc2ccc(O)cc2)C(=O)N[C@@H](C(C)C)C(=O)N2C[C@H](O)C[C@H]2C(=O)N[C@H]([C@@H](C)O)C(=O)N[C@@H]([C@@H](C)O)C(=O)N2CC[C@H](O)[C@H]2C(=O)NC(C(O)CC(N)=O)C(=O)NCC(=O)N[C@H]([C@@H](C)O)C(=O)N[C@@H](CCCN(CCN)C(=O)[C@H](CCCN)N(CCN)CCN)C(=O)O1 (stereo partly drawn) [Aerothricin 137] ([d(aThr)][dA]YV[Hyp][d(aThr)]T[Pro(3S-OH)][X1]G[d(aThr)][X6](Orn(Nα,Nα-(2-aminoethyl)2)); linker N-C via X3) |  |  |  |  | 5.2 |  |  |
